Tests used:
Assay in all cases: KINOMEscan kinase binding assay
[1] = tested on: ABL1(F317L)-nonphosphorylated; settings: at 1 μM
Outline: (§1)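 Immobilized-ligand competition, qPCR-quantified. Kinase sources: T7 phage lysates from BL21-type E. coli, or HEK-293 expression plus DNA tag. Results expressed as % Ctrl (lower = stronger binding) and as Kd from capture versus concentration curves.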

[2] = tested on: ABL1(H396P)-phosphorylated; settings: at 1 μM
Outline: as §1

[3] = tested on: ABL1(M351T)-phosphorylated; settings: at 1 μM
Outline: as §1

[4] = tested on: ABL2; settings: at 1 μM
Outline: as §1

[5] = tested on: ALK; settings: at 1 μM
Outline: as §1

[6] = tested on: BMX; settings: at 1 μM
Outline: as §1

[7] = tested on: BRK; settings: at 1 μM
Outline: as §1

[8] = tested on: CSF1R-autoinhibited; settings: at 1 μM
Outline: as §1

[9] = tested on: CSK; settings: at 1 μM
Outline: as §1

[10] = tested on: EGFR(G719S); settings: at 1 μM
Outline: as §1

[11] = tested on: EGFR(L747-E749del, A750P); settings: at 1 μM
Outline: as §1

[12] = tested on: EGFR(L858R); settings: at 1 μM
Outline: (§2)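 We measured how much kinase stayed bound to an immobilized small-molecule ligand when test compound was present. Binding ran at room temperature for 1 h, and the kinase eluted from the beads was counted by qPCR. Lower % Ctrl indicated tighter compound binding.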

[13] = tested on: EGFR(S752-1759del); settings: at 1 μM
Outline: as §2

[14] = tested on: EPHA1; settings: at 1 μM
Outline: as §2

[15] = tested on: EPHA2; settings: at 1 μM
Outline: as §2

[16] = tested on: EPHA4; settings: at 1 μM
Outline: as §2

[17] = tested on: EPHB2; settings: at 1 μM
Outline: as §1

[18] = tested on: EPHB3; settings: at 1 μM
Outline: as §1

[19] = tested on: ERBB4; settings: at 1 μM
Outline: as §1

[20] = tested on: FGFR2; settings: at 1 μM
Outline: as §1

[21] = tested on: FGFR3; settings: at 1 μM
Outline: as §1

[22] = tested on: FLT3(K663Q); settings: at 1 μM
Outline: as §1

[23] = tested on: FLT3(R834Q); settings: at 1 μM
Outline: as §1

[24] = tested on: FRK; settings: at 1 μM
Outline: as §1

[25] = tested on: IGF1R; settings: at 1 μM
Outline: as §1

[26] = tested on: INSRR; settings: at 1 μM
Outline: as §1

[27] = tested on: JAK1(JH2domain-pseudokinase); settings: for % Ctrl: JAK1(JH2domain-pseudokinase), at 1 μM; for Kd: read-out: JAK1(JH2 domain-pseudokinase) Kd
Outline: as §1

[28] = tested on: KIT(V559D, T670I); settings: at 1 μM
Outline: as §1

[29] = tested on: KIT(V559D, V654A); settings: at 1 μM
Outline: as §1

[30] = tested on: RET(V804M); settings: at 1 μM
Outline: as §1

[31] = tested on: ROS1; settings: at 1 μM
Outline: as §1

[32] = tested on: SRMS; settings: at 1 μM
Outline: as §1

[33] = tested on: TEC; settings: at 1 μM
Outline: as §1

[34] = tested on: TIE2; settings: at 1 μM
Outline: as §1

[35] = tested on: TNK1; settings: at 1 μM
Outline: as §1

[36] = tested on: TNK2; settings: at 1 μM
Outline: as §1

[37] = tested on: TRKA; settings: at 1 μM
Outline: as §1

[38] = tested on: TYK2(JH1domain-catalytic); settings: for % Ctrl: TYK2(JH1domain-catalytic), at 1 μM; for Kd: read-out: TYK2(JH1 domain-catalytic) Kd
Outline: as §2

[39] = tested on: TYRO3; settings: at 1 μM
Outline: as §1

SMILES: Cc1cc2c([nH]1)/C=C1\C(=O)Nc3ccc(cc31)-c1c(nn(C)c1C)OCCCN(C)C2=O [Cpd. 1, [3a(4)Z]-6,9,15,16-tetramethyl-9,10,11,12-tetrahydro-15H-1,17-(ethanediylidene)pyrazolo[4,3-n]dipyrrolo[3,2-g:3′,4′-j][1,5]oxazacyclopentadecine-3,8(2H,5H)-dione]
- % Ctrl [1]: 83%
- % Ctrl [2]: 96%
- % Ctrl [3]: 100%
- % Ctrl [4]: 87%
- % Ctrl [5]: 87%
- % Ctrl [6]: 67%
- % Ctrl [7]: 92%
- % Ctrl [8]: 82%
- % Ctrl [9]: 97%
- % Ctrl [10]: 80%
- % Ctrl [11]: 100%
- % Ctrl [12]: 100%
- % Ctrl [13]: 88%
- % Ctrl [14]: 100%
- % Ctrl [15]: 97%
- % Ctrl [16]: 96%
- % Ctrl [17]: 97%
- % Ctrl [18]: 99%
- % Ctrl [19]: 95%
- % Ctrl [20]: 96%
- % Ctrl [21]: 96%
- % Ctrl [22]: 80%
- % Ctrl [23]: 97%
- % Ctrl [24]: 93%
- % Ctrl [25]: 100%
- % Ctrl [26]: 94%
- % Ctrl [27]: 100%
- % Ctrl [28]: 93%
- % Ctrl [29]: 100%
- % Ctrl [30]: 100%
- % Ctrl [31]: 91%
- % Ctrl [32]: 93%
- % Ctrl [33]: 91%
- % Ctrl [34]: 95%
- % Ctrl [35]: 100%
- % Ctrl [36]: 100%
- % Ctrl [37]: 67%
- % Ctrl [38]: 31%
- Kd [38]: > 10000 nM
- % Ctrl [39]: 100%

SMILES: Cc1cc2c([nH]1)/C=C1\C(=O)Nc3ccc(cc31)-c1c(nn(C)c1C)COCCN(C)C2=O [Cpd. 2, [3a(4)Z]-6,9,15,16-tetramethyl-10,11,13,15-tetrahydro-2H-1,17-(ethanediylidene)pyrazolo[4,3-m]dipyrrolo[3,2-f:3′,4′-i][1,4]oxazacyclopentadecine-3,8(5H,9H)-dione]
- % Ctrl [1]: 87%
- % Ctrl [2]: 64%
- % Ctrl [3]: 57%
- % Ctrl [4]: 96%
- % Ctrl [5]: 100%
- % Ctrl [6]: 95%
- % Ctrl [7]: 100%
- % Ctrl [8]: 100%
- % Ctrl [9]: 100%
- % Ctrl [10]: 77%
- % Ctrl [11]: 85%
- % Ctrl [12]: 78%
- % Ctrl [13]: 80%
- % Ctrl [14]: 100%
- % Ctrl [15]: 85%
- % Ctrl [16]: 100%
- % Ctrl [17]: 97%
- % Ctrl [18]: 100%
- % Ctrl [19]: 67%
- % Ctrl [20]: 85%
- % Ctrl [21]: 88%
- % Ctrl [22]: 47%
- % Ctrl [23]: 50%
- % Ctrl [24]: 98%
- % Ctrl [25]: 88%
- % Ctrl [26]: 100%
- % Ctrl [27]: 30%
- % Ctrl [28]: 82%
- % Ctrl [29]: 92%
- % Ctrl [30]: 77%
- % Ctrl [31]: 97%
- % Ctrl [32]: 90%
- % Ctrl [33]: 83%
- % Ctrl [34]: 63%
- % Ctrl [35]: 92%
- % Ctrl [36]: 89%
- % Ctrl [37]: 20%
- % Ctrl [38]: 100%
- Kd [38]: > 10000 nM
- % Ctrl [39]: 100%

SMILES: Cc1cc2c([nH]1)/C=C1\C(=O)Nc3c(Cl)cc(cc31)-c1cn(C)nc1COC[C@@H](C)NC2=O [Cpd. 3, [3a(4)Z,10R]-20-chloro-6,10,15-trimethyl-10,11,13,15-tetrahydro-2H-1,17-(ethanediylidene)pyrazolo[4,3-m]dipyrrolo[3,2-f:3′,4′-i][1,4]oxazacyclopentadecine-3,8(5H,9H)-dione]
- % Ctrl [1]: 95%
- % Ctrl [2]: 100%
- % Ctrl [3]: 99%
- % Ctrl [4]: 97%
- % Ctrl [5]: 100%
- % Ctrl [6]: 91%
- % Ctrl [7]: 95%
- % Ctrl [8]: 71%
- % Ctrl [9]: 94%
- % Ctrl [10]: 100%
- % Ctrl [11]: 90%
- % Ctrl [12]: 96%
- % Ctrl [13]: 94%
- % Ctrl [14]: 85%
- % Ctrl [15]: 93%
- % Ctrl [16]: 92%
- % Ctrl [17]: 99%
- % Ctrl [18]: 93%
- % Ctrl [19]: 96%
- % Ctrl [20]: 90%
- % Ctrl [21]: 89%
- % Ctrl [22]: 100%
- % Ctrl [23]: 100%
- % Ctrl [24]: 97%
- % Ctrl [25]: 95%
- % Ctrl [26]: 99%
- % Ctrl [27]: 3.1%
- Kd [27]: 120 nM
- % Ctrl [28]: 100%
- % Ctrl [29]: 100%
- % Ctrl [30]: 100%
- % Ctrl [31]: 62%
- % Ctrl [32]: 69%
- % Ctrl [33]: 96%
- % Ctrl [34]: 97%
- % Ctrl [35]: 94%
- % Ctrl [36]: 97%
- % Ctrl [37]: 61%
- % Ctrl [38]: 71%
- Kd [38]: > 10000 nM
- % Ctrl [39]: 94%

SMILES: C[C@@H]1COCc2nn(C)cc2-c2cc(Cl)c3c(c2)/C(=C/c2[nH]ccc2C(=O)N1)C(=O)N3 [Cpd. 4, [3a(4)Z,10R]-20-chloro-10,15-dimethyl-10,11,13,15-tetrahydro-2H-1,17-(ethanediylidene)pyrazolo[4,3-m]dipyrrolo[3,2-f:3′,4′-i][1,4]oxazacyclopentadecine-3,8(5H,9H)-dione]
- % Ctrl [1]: 96%
- % Ctrl [2]: 96%
- % Ctrl [3]: 94%
- % Ctrl [4]: 97%
- % Ctrl [5]: 100%
- % Ctrl [6]: 93%
- % Ctrl [7]: 83%
- % Ctrl [8]: 75%
- % Ctrl [9]: 100%
- % Ctrl [10]: 96%
- % Ctrl [11]: 75%
- % Ctrl [12]: 95%
- % Ctrl [13]: 93%
- % Ctrl [14]: 71%
- % Ctrl [15]: 96%
- % Ctrl [16]: 92%
- % Ctrl [17]: 96%
- % Ctrl [18]: 93%
- % Ctrl [19]: 100%
- % Ctrl [20]: 99%
- % Ctrl [21]: 87%
- % Ctrl [22]: 90%
- % Ctrl [23]: 100%
- % Ctrl [24]: 78%
- % Ctrl [25]: 94%
- % Ctrl [26]: 91%
- % Ctrl [27]: 0.25%
- Kd [27]: 29 nM
- % Ctrl [28]: 94%
- % Ctrl [29]: 99%
- % Ctrl [30]: 90%
- % Ctrl [31]: 68%
- % Ctrl [32]: 68%
- % Ctrl [33]: 99%
- % Ctrl [34]: 91%
- % Ctrl [35]: 94%
- % Ctrl [36]: 100%
- % Ctrl [37]: 59%
- % Ctrl [38]: 48%
- Kd [38]: 1500 nM
- % Ctrl [39]: 97%

SMILES: Cc1cc2c([nH]1)/C=C1\C(=O)Nc3c(Cl)cc(cc31)-c1cn(C)nc1COC[C@@H](C)N(C)C2=O [Cpd. 5, [3a(4)Z,10R]-20-chloro-6,9,10,15-tetramethyl-10,11,13,15-tetrahydro-2H-1,17-(ethanediylidene)pyrazolo[4,3-m]dipyrrolo[3,2-f:3′,4′-i][1,4]oxazacyclopentadecine-3,8(5H,9H)-dione]
- % Ctrl [1]: 86%
- % Ctrl [2]: 80%
- % Ctrl [3]: 94%
- % Ctrl [4]: 96%
- % Ctrl [5]: 71%
- % Ctrl [6]: 100%
- % Ctrl [7]: 79%
- % Ctrl [8]: 75%
- % Ctrl [9]: 96%
- % Ctrl [10]: 98%
- % Ctrl [11]: 74%
- % Ctrl [12]: 90%
- % Ctrl [13]: 100%
- % Ctrl [14]: 82%
- % Ctrl [15]: 100%
- % Ctrl [16]: 93%
- % Ctrl [17]: 90%
- % Ctrl [18]: 89%
- % Ctrl [19]: 97%
- % Ctrl [20]: 100%
- % Ctrl [21]: 90%
- % Ctrl [22]: 87%
- % Ctrl [23]: 98%
- % Ctrl [24]: 80%
- % Ctrl [25]: 98%
- % Ctrl [26]: 99%
- % Ctrl [27]: 0.85%
- Kd [27]: 50 nM
- % Ctrl [28]: 95%
- % Ctrl [29]: 91%
- % Ctrl [30]: 90%
- % Ctrl [31]: 69%
- % Ctrl [32]: 61%
- % Ctrl [33]: 94%
- % Ctrl [34]: 92%
- % Ctrl [35]: 91%
- % Ctrl [36]: 87%
- % Ctrl [37]: 53%
- % Ctrl [38]: 69%
- Kd [38]: > 10000 nM
- % Ctrl [39]: 84%

Reference: US20250074920A1, “MACROCYCLIC COMPOUNDS AND USE AS KINASE INHIBITORS” (BLOSSOMHILL THERAPEUTICS, INC., priority 2022, published 2025)
